Tests used:
healthy subjects = assay: Satiety test (nutrient drink; maximum volume ingested and postprandial symptoms), Phase I study, 7-day treatment; assay type: in vivo, human
Description: (§1) A a single center, randomized, double-blind, placebo controlled, parallel group Phase I study has been performed. The trial evaluates the effects of a 7-day treatment with 2 different doses of the peripherally selective opiate receptor modulator asimadoline (N-methyl-N-[(1S)-1-phenyl-2-((3S)-3-hydroxypyrrolidin-1-yl)ethyl]-2,2-diphenylacetamide hydrochloride, EMD 61 753) on gastrointestinal and colonic transit and sensorimotor functions in healthy subjects in comparison to placebo.
All subjects have undergone a satiety test prior to and under medication, a scintigraphic gastric and colonic transit test, and, after overnight bowel preparation, a barostat test assessing colonic compliance and colonic sensation prior to and under medication, and fasting colonic tone and colonic response to a standardized meal under medication.
Specific aims of this study have been the comparison of the effects of 7 day treatment with placebo and three doses of asimadoline as described above on: • satiety after ingestion of a nutrient drink • colonic aggregate sensation score in response to distension in healthy subjects • thresholds for colonic sensation of gas and pain in response to distension in healthy subjects • fasting colonic compliance and tone • postprandial tonic response to standard meal ingestion
(§2) A further aim of the study was to compare the gastrointestinal and colonic transit profiles during the 7-day treatment. The studies on lower dosage (0.15 mg/kg and 0.5 mg/kg versus placebo) were performed separately as Part A and the studies on higher dosage (1.5 mg/kg versus placebo) were performed separately as Part B of the studies (see FIGS. 1 to 4).
The primary endpoint in the satiety test is difference to baseline in the aggregate satiety score 30 min after full satiety.
The analysis of primary motility endpoints (gastric residual percent at 2 hrs, colonic filling (CF) percent at 6 hrs. and colonic geometric center at 24 hrs)and the maximum satiety volume (at day 5) is based on one-way analysis of variance or analysis of covariance methods. The proportions (GE at 2 hrs and CF at 6 hrs)may warrant transformation (e.g., sin^−1{square root}) prior to analysis to stabilize variation across treatment groups. Analysis of the satiety volumes incorporates the baseline value as a covariate in addition to BMI; or alternatively, the relative changes (log [day 5 volume/baseline volume]) are analyzed with BMI as a covariate.

[1] = tested on: colon of healthy subjects; assay: Barostat test (intubated colonic procedure: fasting colonic volume, sensation and pain to distension), Phase I study, 7-day treatment; assay type: in vivo, human; parameters: key to sensation to distension (VAS score) / pain to distension (VAS score): 100 mm visual analog scale
Description: as §1, §2
All subjects are presented to the General Clinical Research Center at Charlton 7, General Clinical Research Center, on visit 3 after overnight bowel preparation with the oral colonic lavage solution (2-5 L of polyethylene glycol 3350 and electrolyte solution, NuLytely™, Abbott Laboratories, Chicago. IL), and a 12-hour fast.
Flexible colonoscopy is performed to evaluate the left side of the colon and to place a teflon guidewire into the proximal colon under fluoroscopic control. The endoscope is withdrawn.
A barostat catheter is inserted into the colon along the guidewire so that the barostat balloon is located in the upper sigmoid or descending colon. The catheter is connected to a barostat machine using an infinitely compliant 10-cm long balloon with a maximum volume of 600 cc (Hefty Baggies, Mobil Chemical Co., Pittsford, N.Y.) linked to an electronic barostat (Mayo rigid barostat, Mayo Foundation Engineering Department, Rochester, Minn.) which has a rigid piston. The manometric portion comprises six waterperfused (0.4 ml/min) pneumohydraulic sensors, three in the descending colon (sensor numbers 1-3) and three in the sigmoid colon (sensor numbers 4-6). The manometric sensors are 5 cm apart, while the first and second sensors are 5 cm oral and caudal to the balloon respectively. To decrease the effects of abdominal viscera on the balloon volume, the studies are performed with the subjects in a semi-prone position during the entire duration of the study.
Previous studies have shown that an initial “conditioning” distension to 20 mmHg renders subsequent assessments of compliance and perception more reproducible [15. 47. 48]. Following the conditioning distension, colonic compliance and sensory thresholds are measured by ramp inflation with increments of 4 mmHg, o steps at 30 second intervals from 0 to 44 mmHg; thresholds for first sensation and sensation of pain are thus determined using the ascending method of limits.
Immediately prior to assessment of colonic sensation, four 100 mm visual analog scales (VAS) scales using the anchor points “tired-energetic”, “peaceful-tense” and “worried-relaxed” and “active-drowsy” are used to determine the level of arousal, anxiety or stress being experienced by the subject. […] Subsequently, randomized-order phasic distensions at 8, 16, 24, and 32 mm Hg above operating pressure are applied to measure the sensations of gas or pain.
For rating sensory perception, the participants are asked to mark two separate VAS for abdominal pain and feeling of gas at a standardized time, 20 seconds after the distension had commenced. The VAS are anchored at the ends by the descriptions “unnoticeable” and “unbearable”. During assessment of sensation, verbal interaction between the subject and investigator is minimized.
Colonic sensation is assessed before and 1 h after drug administration during the measurement of colonic compliance. This is equivalent to finding the threshold pressures or the initial perception and pain perception during sequential pressure increments using the ascending method of limits.
The participant is allowed to rest for 15 minutes. […]

Structure (SMILES): CN(C(=O)C(c1ccccc1)c1ccccc1)[C@H](CN1CC[C@H](O)C1)c1ccccc1.Cl [asimadoline, N-methyl-N-[(1S)-1-phenyl-2-((3S)-3-hydroxypyrrolidin-1-yl)ethyl]-2,2-diphenylacetamide hydrochloride]
- maximum ingested volume versus placebo (in words) (healthy subjects; 0.15 mg/kg): increase the maximum ingested volume slightly versus placebo
- aggregate postprandial symptoms (VAS score) (healthy subjects; 0.15 mg/kg, Part A (placebo 180)): 187
- maximum volume ingested (satiety test) (healthy subjects; 0.15 mg/kg, study Part A (placebo 1280 ml)): 1425 mL
- maximum ingested volume versus placebo (in words) (healthy subjects; 0.5 mg/kg): increase the maximum ingested volume significantly versus placebo
- aggregate postprandial symptoms (VAS score) (healthy subjects; 0.5 mg/kg, Part A (placebo 180)): 170
- maximum volume ingested (satiety test) (healthy subjects; 0.5 mg/kg, study Part A (placebo 1280 ml)): 1470 mL
- postprandial symptoms with higher ingested volume (in words) (healthy subjects; 1.5 mg/kg): symptoms increased with increased volume ingested
- aggregate postprandial symptoms (VAS score) (healthy subjects; 1.5 mg/kg, Part B (placebo 162)): 192
- maximum volume ingested (satiety test) (healthy subjects; 1.5 mg/kg, study Part B (placebo 1300 ml)): 1390 mL
- postprandial symptoms with higher ingested volume (in words) (healthy subjects; dosis in the range of 0.5 mg/kg): not associated with an increase in symptoms
- maximum ingested volume, dose dependency (in words) (healthy subjects; higher concentration (1.5 mg/kg)): ceiling effect established
- maximum ingested volume, dose dependency (in words) (healthy subjects; lower end of the dosis range (0.15 mg/kg)): dose response effect established
- fasting volume of the colon at 0 mm pressure ([1]; 0.15 mg/kg, Part A (placebo 1 ml)): 8 mL
- fasting volume versus placebo (in words) ([1]; 0.5 mg/kg): significantly higher
- fasting volume of the colon at 0 mm pressure ([1]; 0.5 mg/kg, Part A (placebo 1 ml)): 21 mL
- perception of distension (in words) ([1]; 0.5 mg/kg, low pressure (8 mm Hg), effect decreases by increasing pressure): significantly reduced
- fasting volume of the colon at 0 mm pressure ([1]; 1.5 mg/kg, Part B (placebo 6 ml)): 24 mL
- pain to distension (VAS score) ([1]; 8 mm Hg, 0.15 mg/kg, Part A (placebo 22)): 25
- sensation to distension (VAS score) ([1]; 8 mm Hg, 0.15 mg/kg, Part A (placebo 37)): 38
- pain to distension (VAS score) ([1]; 8 mm Hg, 0.5 mg/kg, Part A (placebo 22)): 18
- sensation to distension (VAS score) ([1]; 8 mm Hg, 0.5 mg/kg, Part A (placebo 37)): 26
- pain to distension (VAS score) ([1]; 8 mm Hg, 1.5 mg/kg, Part B (placebo 14)): 30
- sensation to distension (VAS score) ([1]; 8 mm Hg, 1.5 mg/kg, Part B (placebo 20)): 31
- pain to distension (VAS score) ([1]; 16 mm Hg, 0.15 mg/kg, Part A (placebo 33)): 28
- sensation to distension (VAS score) ([1]; 16 mm Hg, 0.15 mg/kg, Part A (placebo 43)): 37
- pain to distension (VAS score) ([1]; 16 mm Hg, 0.5 mg/kg, Part A (placebo 33)): 28
- sensation to distension (VAS score) ([1]; 16 mm Hg, 0.5 mg/kg, Part A (placebo 43)): 37
- pain to distension (VAS score) ([1]; 16 mm Hg, 1.5 mg/kg, Part B (placebo 21)): 37
- sensation to distension (VAS score) ([1]; 16 mm Hg, 1.5 mg/kg, Part B (placebo 23)): 38
- pain to distension (VAS score) ([1]; 24 mm Hg, 0.15 mg/kg, Part A (placebo 38)): 30
- sensation to distension (VAS score) ([1]; 24 mm Hg, 0.15 mg/kg, Part A (placebo 43)): 45
- pain to distension (VAS score) ([1]; 24 mm Hg, 0.5 mg/kg, Part A (placebo 38)): 32
- sensation to distension (VAS score) ([1]; 24 mm Hg, 0.5 mg/kg, Part A (placebo 43)): 41
- pain to distension (VAS score) ([1]; 24 mm Hg, 1.5 mg/kg, Part B (placebo 30)): 40
- sensation to distension (VAS score) ([1]; 24 mm Hg, 1.5 mg/kg, Part B (placebo 42)): 41
- pain to distension (VAS score) ([1]; 32 mm Hg, 0.15 mg/kg, Part A (placebo 48)): 42
- sensation to distension (VAS score) ([1]; 32 mm Hg, 0.15 mg/kg, Part A (placebo 54)): 53
- pain to distension (VAS score) ([1]; 32 mm Hg, 0.5 mg/kg, Part A (placebo 48)): 38
- sensation to distension (VAS score) ([1]; 32 mm Hg, 0.5 mg/kg, Part A (placebo 54)): 47
- pain to distension (VAS score) ([1]; 32 mm Hg, 1.5 mg/kg, Part B (placebo 43)): 47
- sensation to distension (VAS score) ([1]; 32 mm Hg, 1.5 mg/kg, Part B (placebo 51)): 43
- perception of pain (in words) ([1]; Barostat test, no dose stated): no significant reduction in the perception of pain could be observed
- scores for pain and sensation versus placebo (in words) ([1]; higher doses (1.5 mg/kg)): significantly higher scores for pain and sensation were observed versus placebo

Reference: patent publication US20050176746A1, “Use of compounds that are effective as selective opiate receptor modulators” (priority 2002, published 2005)
